Measured values taken from patent publication US20060217294A1, “Compounds binding to p-selectin” (YAMANOUCHI EUROPE B.V., priority 2002, published 2006).
Numbered stars: 1 amine (or outer) side, 2 acyl side, 3 side chain; on linkers, the order of the positions; unused ones are H or OH. Square brackets hold non-standard residues; d marks the D form. Peptide text beside a SMILES is read from it. * marks the point of attachment. Trimesoyl = O=C(c1cc(C(=O)[*:2])cc(C(=O)[*:3])c1)[*:1]; Thiophene2carbonyl = O=C(c1cccs1)*; 1Naphthoyl = O=C(c1cccc2ccccc12)*; Galloyl = O=C(c1cc(O)c(O)c(O)c1)*; Trx = NC[C@H]1CC[C@H](C(=O)O)CC1; 4Amb = NCc1ccc(C(=O)O)cc1; 4Abz = Nc1ccc(C(=O)O)cc1; Butyryl = CCCC(=O)*; Bz = O=C(c1ccccc1)*; X1 = CN(C)CCCC(=O)*; Ahx = NCCCCCC(=O)O; GABA = NCCCC(=O)O

molecular target: T1, P-selectin (Homo sapiens, UniProt P16109); assay: not given; details: described in European patent application No. 01203314.8; read-out: affinity for P-selectin, IC50; cited from earlier work
T1 sequence (P16109 42-830): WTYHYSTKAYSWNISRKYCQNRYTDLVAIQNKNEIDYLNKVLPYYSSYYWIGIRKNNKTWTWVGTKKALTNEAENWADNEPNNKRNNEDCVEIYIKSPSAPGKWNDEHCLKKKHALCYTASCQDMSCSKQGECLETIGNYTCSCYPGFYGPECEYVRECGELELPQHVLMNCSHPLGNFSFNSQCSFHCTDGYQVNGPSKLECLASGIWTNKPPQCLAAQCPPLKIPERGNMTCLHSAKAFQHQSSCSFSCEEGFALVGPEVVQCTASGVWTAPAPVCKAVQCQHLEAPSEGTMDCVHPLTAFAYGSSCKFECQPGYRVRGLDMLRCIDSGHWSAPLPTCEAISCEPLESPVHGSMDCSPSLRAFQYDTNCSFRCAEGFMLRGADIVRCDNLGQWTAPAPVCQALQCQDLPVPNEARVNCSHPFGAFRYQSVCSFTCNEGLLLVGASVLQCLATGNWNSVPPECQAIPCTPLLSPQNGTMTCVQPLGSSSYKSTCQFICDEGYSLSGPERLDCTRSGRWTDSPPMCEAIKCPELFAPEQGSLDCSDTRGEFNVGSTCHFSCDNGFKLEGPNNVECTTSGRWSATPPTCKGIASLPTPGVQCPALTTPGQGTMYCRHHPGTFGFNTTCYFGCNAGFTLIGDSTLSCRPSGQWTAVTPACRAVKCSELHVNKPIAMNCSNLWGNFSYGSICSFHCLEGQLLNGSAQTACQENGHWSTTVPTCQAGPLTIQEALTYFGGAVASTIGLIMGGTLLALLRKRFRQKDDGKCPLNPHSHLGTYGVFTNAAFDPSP

Compound | IC50 [µM]
EWVDV [Peptide A29] | ~2

molecular target: T2, human P-selectin (Homo sapiens, UniProt P16109); assay: not given; details: Table 2; values marked b, from not pre-published European patent application 01203314.8; read-out: IC50 for human P-selectin as determined by competition Elisa; cited from earlier work
T2 construct: IgG-Fc (fusion partner); purchased R&D Systems Europe Ltd., Abingdon, United Kingdom
T2 sequence (P16109 with tags, fused parts or gaps limits assumed): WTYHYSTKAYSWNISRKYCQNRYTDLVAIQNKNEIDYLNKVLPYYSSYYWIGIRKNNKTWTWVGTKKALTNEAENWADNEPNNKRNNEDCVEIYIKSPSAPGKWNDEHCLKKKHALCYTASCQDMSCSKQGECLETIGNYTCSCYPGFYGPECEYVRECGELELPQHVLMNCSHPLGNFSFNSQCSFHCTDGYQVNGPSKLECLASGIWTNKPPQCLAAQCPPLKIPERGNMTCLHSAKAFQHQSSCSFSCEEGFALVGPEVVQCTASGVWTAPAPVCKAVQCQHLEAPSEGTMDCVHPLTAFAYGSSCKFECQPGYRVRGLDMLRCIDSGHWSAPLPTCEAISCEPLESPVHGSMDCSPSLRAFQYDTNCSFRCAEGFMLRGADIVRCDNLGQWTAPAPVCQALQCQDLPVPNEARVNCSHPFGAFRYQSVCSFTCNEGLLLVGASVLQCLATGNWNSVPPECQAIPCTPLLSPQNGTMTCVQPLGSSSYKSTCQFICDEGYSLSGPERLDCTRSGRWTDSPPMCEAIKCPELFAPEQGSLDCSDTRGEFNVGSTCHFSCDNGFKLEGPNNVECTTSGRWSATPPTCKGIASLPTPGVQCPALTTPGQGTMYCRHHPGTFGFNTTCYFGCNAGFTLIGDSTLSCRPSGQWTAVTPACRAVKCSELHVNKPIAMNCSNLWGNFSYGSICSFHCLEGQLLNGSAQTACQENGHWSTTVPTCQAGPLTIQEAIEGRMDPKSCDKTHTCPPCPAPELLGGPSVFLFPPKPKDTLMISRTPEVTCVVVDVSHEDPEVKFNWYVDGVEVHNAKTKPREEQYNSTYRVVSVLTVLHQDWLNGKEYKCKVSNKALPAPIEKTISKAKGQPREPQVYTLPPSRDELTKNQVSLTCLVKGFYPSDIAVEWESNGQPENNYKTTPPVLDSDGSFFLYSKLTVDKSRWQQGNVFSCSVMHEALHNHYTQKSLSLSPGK

Compound | IC50 [µM]
AWVDV [Peptide A131] | 27
CDVEWVDVSSLEWDLPC [TM11] | 2
DWVDV [Peptide A129] | 16
EWVDV [Peptide A29] | 8
KWVDV [Peptide A130] | 28
WVDV [Peptide A138] | > 1000

molecular target: T2, human P-selectin; assay: Competition assay with TM11-PO (competition ELISA); assay type: binding; details: Table 1; derivatised peptides HPij; inhibition of TM11-PO binding to human P-selectin; read-out: IC50
Protocol: Compounds according to the invention, as prepared in examples 1, 2 and 3 and some reference peptide compounds were assayed for its ability to inhibit TM11-PO binding to human P-selectin. […] For competition studies, a 96 wells microtiter plate (high binding, flat bottom, Costar, Corning, U.S.A.) was coated overnight at 4° C. with 10 μg/ml goat anti-human IgG (Fc specific) (Sigma-Aldrich, Zwijndrecht, the Netherlands) in coating buffer (50 mM NaHCO3, pH 9.6). Subsequently, wells were washed with assay buffer and incubated for 1 hour at 37° C. with blocking buffer (3% BSA in assay buffer). After washing with assay buffer, the wells were incubated for 2 hours at 37° C. with the human P-selectin IgG-Fc chimera (R&D Systems Europe Ltd., Abingdon, United Kingdom) (0.3 μg/ml). Subsequently, wells were washed with assay buffer and incubated for 1 hour at 4° C. with the TM11-PO complex. The wells were washed six times with washing buffer (0.1% Tween 20 in assay buffer). […] (TMB)/hydrogen peroxide (H2O2) (Pierce, Rochford, U.S.A.) was added and wells were incubated at room temperature for 15 minutes. The reaction was halted by addition of 2 M H2SO4 and the absorbance was measured at 450 nm.

IC50 [µM] | Compound
6 | CC(C)[C@H](NC(=O)[C@H](CC(=O)O)NC(=O)[C@@H](NC(=O)[C@H](Cc1c[nH]c2ccccc12)NC(=O)[C@@H](N)CCC(=O)O)C(C)C)C(=O)N[C@@H](CCCCNC(=O)c1cc(O)c(O)c(O)c1)C(=O)NCCCC(=O)O [HP06] (H-EWVDVK(Galloyl)[GABA]-OH)
1.02 | CC(C)[C@H](NC(=O)[C@H](CC(=O)O)NC(=O)[C@@H](NC(=O)[C@H](Cc1c[nH]c2ccccc12)NC(=O)[C@H](CCC(=O)O)NC(=O)c1cc(C(=O)O)cc(C(=O)O)c1)C(C)C)C(=O)N[C@@H](CCCCNC(=O)c1cccc2ccccc12)C(=O)NCCCC(=O)O [HP14] (Trimesoyl-EWVDVK(1Naphthoyl)[GABA]-OH)
0.31 | CC(C)[C@H](NC(=O)[C@H](CC(=O)O)NC(=O)[C@@H](NC(=O)[C@H](Cc1c[nH]c2ccccc12)NC(=O)[C@H](CCC(=O)O)NC(=O)c1cc(C(=O)O)cc(C(=O)O)c1)C(C)C)C(=O)N[C@@H](CCCCNC(=O)c1cc(O)c(O)c(O)c1)C(=O)NCCCC(=O)O [HP16] (Trimesoyl-EWVDVK(Galloyl)[GABA]-OH)
0.45 | CC(C)[C@H](NC(=O)[C@H](CC(=O)O)NC(=O)[C@@H](NC(=O)[C@H](Cc1c[nH]c2ccccc12)NC(=O)[C@H](CCC(=O)O)NC(=O)c1cc(C(=O)O)cc(C(=O)O)c1)C(C)C)C(=O)N[C@@H](CCCCNC(=O)c1ccccc1)C(=O)NCCCC(=O)O [HP17] (Trimesoyl-EWVDVK(Bz)[GABA]-OH)
1.1 | CC(C)[C@H](NC(=O)[C@H](CC(=O)O)NC(=O)[C@@H](NC(=O)[C@H](Cc1c[nH]c2ccccc12)NC(=O)[C@H](CCC(=O)O)NC(=O)c1cc(O)c(O)c(O)c1)C(C)C)C(=O)N[C@@H](CCCCN)C(=O)NCCCC(=O)O [HP60] (Galloyl-EWVDVK[GABA]-OH)
0.19 | CC(C)[C@H](NC(=O)[C@H](CC(=O)O)NC(=O)[C@@H](NC(=O)[C@H](Cc1c[nH]c2ccccc12)NC(=O)[C@H](CCC(=O)O)NC(=O)c1cc(O)c(O)c(O)c1)C(C)C)C(=O)N[C@@H](CCCCNC(=O)c1cc(C(=O)O)cc(C(=O)O)c1)C(=O)NCCCC(=O)O [HP61] (Galloyl-EWVDVK(Trimesoyl)[GABA]-OH)
0.28 | CC(C)[C@H](NC(=O)[C@H](CC(=O)O)NC(=O)[C@@H](NC(=O)[C@H](Cc1c[nH]c2ccccc12)NC(=O)[C@H](CCC(=O)O)NC(=O)c1cc(O)c(O)c(O)c1)C(C)C)C(=O)N[C@@H](CCCCNC(=O)CCCN(C)C)C(=O)NCCCC(=O)O [HP62] (Galloyl-EWVDVK(X1)[GABA]-OH)
3.4 | CC(C)[C@H](NC(=O)[C@H](CC(=O)O)NC(=O)[C@@H](NC(=O)[C@H](Cc1c[nH]c2ccccc12)NC(=O)[C@H](CCC(=O)O)NC(=O)c1cc(O)c(O)c(O)c1)C(C)C)C(=O)N[C@@H](CCCCNC(=O)c1cccs1)C(=O)NCCCC(=O)O [HP63] (Galloyl-EWVDVK(Thiophene2carbonyl)[GABA]-OH)
2.35 | CCCC(=O)NCCCC[C@H](NC(=O)[C@@H](NC(=O)[C@H](CC(=O)O)NC(=O)[C@@H](NC(=O)[C@H](Cc1c[nH]c2ccccc12)NC(=O)[C@H](CCC(=O)O)NC(=O)c1cc(O)c(O)c(O)c1)C(C)C)C(C)C)C(=O)NCCCC(=O)O [HP65] (Galloyl-EWVDVK(Butyryl)[GABA]-OH)

same assay, conditions: Table 2; average of at least 3 experiments at 8 concentrations, TM11-PO competition ELISA; read-out: IC50 for human P-selectin as determined by competition Elisa

IC50 [µM] | Compound
0.037 | CC(C)[C@H](NC(=O)[C@H](CC(=O)O)NC(=O)[C@@H](NC(=O)[C@H](Cc1c[nH]c2ccccc12)NC(=O)c1cc(O)c(O)c(O)c1)C(C)C)C(=O)O [Peptide 12, GA-WVDV] (Galloyl-WVDV-OH)

same assay, conditions: Table 3; gallic acid derivatized peptides; mean of at least 3 experiments at 8 concentrations; read-out: IC50 for human P-selectin as determined by competition Elisa

IC50 [µM] | Compound
0.0371 | CC(C)[C@H](NC(=O)[C@H](CC(=O)O)NC(=O)[C@@H](NC(=O)[C@H](Cc1c[nH]c2ccccc12)NC(=O)c1cc(O)c(O)c(O)c1)C(C)C)C(=O)O [Peptide 12, GA-WVDV] (Galloyl-WVDV-OH)
0.0183 | CC(C)[C@H](NC(=O)[C@H](CC(=O)O)NC(=O)[C@@H](NC(=O)[C@H](Cc1c[nH]c2ccccc12)NC(=O)CNC(=O)c1cc(O)c(O)c(O)c1)C(C)C)C(=O)O [Peptide 27] (Galloyl-GWVDV-OH)
0.0154 | CC(C)[C@H](NC(=O)[C@H](CC(=O)O)NC(=O)[C@@H](NC(=O)[C@H](Cc1c[nH]c2ccccc12)NC(=O)CCCNC(=O)c1cc(O)c(O)c(O)c1)C(C)C)C(=O)O [Peptide 28] ({Galloyl-GABA}-WVDV-OH)
0.0629 | CC(C)[C@H](NC(=O)[C@H](CC(=O)O)NC(=O)[C@@H](NC(=O)[C@H](Cc1c[nH]c2ccccc12)NC(=O)CCCCCNC(=O)c1cc(O)c(O)c(O)c1)C(C)C)C(=O)O [Peptide 29] ({Galloyl-Ahx}-WVDV-OH)
0.25 | CC(C)[C@H](NC(=O)[C@H](CC(=O)O)NC(=O)[C@@H](NC(=O)[C@H](Cc1c[nH]c2ccccc12)NC(=O)[C@@H]1CCCN1C(=O)c1cc(O)c(O)c(O)c1)C(C)C)C(=O)O [Peptide 30] (Galloyl-PWVDV-OH)
0.59 | CC(C)[C@H](NC(=O)[C@H](CC(=O)O)NC(=O)[C@@H](NC(=O)[C@H](Cc1c[nH]c2ccccc12)NC(=O)c1ccc(CNC(=O)c2cc(O)c(O)c(O)c2)cc1)C(C)C)C(=O)O [Peptide 32] ({Galloyl-4Amb}-WVDV-OH)
0.58 | CC(C)[C@H](NC(=O)[C@H](CC(=O)O)NC(=O)[C@@H](NC(=O)[C@H](Cc1c[nH]c2ccccc12)NC(=O)[C@H]1CC[C@H](CNC(=O)c2cc(O)c(O)c(O)c2)CC1)C(C)C)C(=O)O [Peptide 33] ({Galloyl-Trx}-WVDV-OH)

Compound | IC50 [µM]
CC(C)[C@H](NC(=O)[C@H](CC(=O)O)NC(=O)[C@@H](NC(=O)[C@H](Cc1c[nH]c2ccccc12)NC(=O)c1ccc(NC(=O)c2cc(O)c(O)c(O)c2)cc1)C(C)C)C(=O)O [Peptide 31] ({Galloyl-4Abz}-WVDV-OH) | > 1
